#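 1) Cells in 96-well plates. 2) Compound, 48 h, 5 concentrations. 3) Linear interpolation between surrounding doses. 4) Unreached endpoint = highest concentration. GI50 marks 50% less growth.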 Activity calls are given as the source filed them. No stated cut-off is given here; in the data, active = GI50 up to about 1.1 µM and inactive = higher.
# Assays:
# Test in all cases: NCI-60 cell line screen, 48 h
# NCI-H23 = system: NCI-H23
# RXF 393 = system: RXF 393
# HOP-92 = system: HOP-92
# Malme-3M = system: Malme-3M
# SW-620 = system: SW-620
# SK-OV-3 = system: SK-OV-3
# UACC-62 = system: UACC-62
# Hs-578T = system: Hs-578T
# HCT-15 = system: HCT-15
# U-251 = system: U-251
# OVCAR-4 = system: OVCAR-4
# ACHN = system: ACHN
# HCC 2998 = system: HCC 2998
# BT-549 = system: BT-549
# NCI-H226 = system: NCI-H226
# HCT-116 = system: HCT-116
# K562 = system: K562
# IGROV-1 = system: IGROV-1
# M14 = system: M14
SMILES,GI50 (NCI-H23),GI50 (RXF 393),GI50 (HOP-92),GI50 (Malme-3M),GI50 (SW-620),GI50 (SK-OV-3),GI50 (UACC-62),GI50 (Hs-578T),GI50 (HCT-15),GI50 (U-251),GI50 (OVCAR-4),GI50 (ACHN),GI50 (HCC 2998),GI50 (BT-549),GI50 (NCI-H226),GI50 (HCT-116),GI50 (K562),GI50 (IGROV-1),GI50 (M14)
CC(C)O/N=C/c1cc(NC(=S)OC(C)C)ccc1Cl,43.9 µM (inactive),20.6 µM (inactive),> 44.2 µM (inactive),> 91.8 µM (inactive),45.2 µM (inactive),38.8 µM (inactive),29.7 µM (inactive),30.1 µM (inactive),36.9 µM,32.2 µM (inactive),31.7 µM (inactive),35.2 µM (inactive),45.2 µM (inactive),55.5 µM (inactive),28.8 µM (inactive),23.3 µM (inactive),29.4 µM (inactive),28.2 µM (inactive),62.7 µM (inactive)
COC(=O)c1ccc(C)cc1CC1Cc2cccc(C)c2C1=O (stereo not given),11.1 µM (inactive),7.87 µM (inactive),16 µM (inactive),5.97 µM (inactive),3.72 µM (inactive),8.05 µM (inactive),9.57 µM (inactive),9.77 µM (inactive),3.1 µM,3.87 µM (inactive),19.2 µM (inactive),18.8 µM (inactive),9.59 µM (inactive),9.77 µM (inactive),3.83 µM (inactive),3.68 µM (inactive),2.77 µM (inactive),7.96 µM (inactive),3.93 µM (inactive)
C=CC(C)(O)CCC1C(=C)C(O)CC2C(C)(C)CCCC12C (stereo not given),18.7 µM (inactive),14.3 µM (inactive),17.3 µM (inactive),18.2 µM (inactive),20.7 µM (inactive),33.3 µM (inactive),16 µM (inactive),22.6 µM (inactive),17.6 µM,15.5 µM (inactive),20.5 µM (inactive),26 µM (inactive),18.6 µM (inactive),18 µM (inactive),15.6 µM (inactive),17.9 µM (inactive),14.4 µM (inactive),24.3 µM (inactive),16.3 µM (inactive)
CCOC(=O)C(SCCO)C(C(=O)OCC)n1cc(C)c(=O)[nH]c1=O (stereo not given),21.2 µM (inactive),17 µM (inactive),15.6 µM (inactive),15.4 µM (inactive),5.96 µM (inactive),> 79.3 µM (inactive),16.3 µM (inactive),63.4 µM (inactive),4.41 µM,11.5 µM (inactive),23 µM (inactive),8.75 µM (inactive),27.4 µM (inactive),23.6 µM (inactive),> 32.7 µM (inactive),7.41 µM (inactive),3.48 µM (inactive),25.4 µM (inactive),11.6 µM (inactive)
CCCCOC(=O)C(=O)C(CCC(=O)c1ccc(C)cc1)C(=O)C=C(C)C (stereo not given),> 100 µM (inactive),> 100 µM (inactive),> 100 µM (inactive),> 100 µM (inactive),> 100 µM (inactive),> 100 µM (inactive),> 100 µM (inactive),> 100 µM (inactive),> 100 µM,> 100 µM (inactive),> 100 µM (inactive),> 100 µM (inactive),> 100 µM (inactive),> 100 µM (inactive),> 100 µM (inactive),> 100 µM (inactive),> 100 µM (inactive),> 100 µM (inactive),> 100 µM (inactive)
Cc1ccc(NC(c2ccccc2)P(=O)(c2ccccc2)c2ccccc2)cc1 (stereo not given),> 100 µM (inactive),47.1 µM (inactive),27.2 µM (inactive),> 100 µM (inactive),> 100 µM (inactive),> 100 µM (inactive),> 100 µM (inactive),44.7 µM (inactive),> 100 µM,> 100 µM (inactive),> 100 µM (inactive),63.7 µM (inactive),> 100 µM (inactive),> 100 µM (inactive),> 100 µM (inactive),> 100 µM (inactive),34.4 µM (inactive),> 100 µM (inactive),> 100 µM (inactive)
CNC(=S)NN=C1NCCCN1,> 100 µM (inactive),> 100 µM (inactive),> 100 µM (inactive),> 100 µM (inactive),> 100 µM (inactive),> 100 µM (inactive),> 100 µM (inactive),> 100 µM (inactive),> 100 µM,> 100 µM (inactive),> 100 µM (inactive),> 100 µM (inactive),> 100 µM (inactive),> 100 µM (inactive),> 100 µM (inactive),> 100 µM (inactive),> 100 µM (inactive),> 100 µM (inactive),> 100 µM (inactive)
c1n[nH]cc1C12C3C4C5C3C1C5C42 (stereo not given),> 100 µM (inactive),> 100 µM (inactive),65.6 µM (inactive),> 100 µM (inactive),> 100 µM (inactive),> 100 µM (inactive),> 100 µM (inactive),> 100 µM (inactive),> 100 µM,> 100 µM (inactive),> 100 µM (inactive),> 100 µM (inactive),> 100 µM (inactive),> 100 µM (inactive),> 100 µM (inactive),> 100 µM (inactive),> 100 µM (inactive),> 100 µM (inactive),> 100 µM (inactive)
CCOC(=O)C(=Cc1ccccc1Cl)C(=O)OCC,1.66 µM (inactive),1.61 µM (inactive),2.88 µM (inactive),1.82 µM (inactive),1.32 µM (inactive),5.26 µM (inactive),1.69 µM (inactive),2.89 µM (inactive),1.72 µM,1.63 µM (inactive),2.27 µM (inactive),2.61 µM (inactive),> 10 µM (inactive),1.62 µM (inactive),2.9 µM (inactive),0.558 µM (active),1.15 µM (inactive),3.49 µM (inactive),1.5 µM (inactive)
N#CC(NNC(=O)Cc1ccccc1)c1ccccc1O (stereo not given),9.23 µM (inactive),24.7 µM (inactive),23.3 µM (inactive),16.3 µM (inactive),10.2 µM (inactive),14.5 µM (inactive),5.28 µM (inactive),56.2 µM (inactive),4.25 µM,6.15 µM (inactive),11.8 µM (inactive),6.56 µM (inactive),12.7 µM (inactive),21 µM (inactive),17.3 µM (inactive),7.26 µM (inactive),11.3 µM (inactive),21.2 µM (inactive),10.5 µM (inactive)
Cc1ccc(NC(=S)NNC(=O)c2cc(-c3ccccc3)nc3ccccc23)cc1,12.6 µM (inactive),12.8 µM (inactive),11.8 µM (inactive),6.35 µM (inactive),10.4 µM (inactive),16.5 µM (inactive),12.5 µM (inactive),17.4 µM (inactive),7.13 µM,5.68 µM (inactive),17.9 µM (inactive),16.3 µM (inactive),10.8 µM (inactive),15.7 µM (inactive),18.7 µM (inactive),8.59 µM (inactive),13.4 µM (inactive),15.2 µM (inactive),11.9 µM (inactive)
CN(C)CCNC1=CC(=O)c2c(O)ccc(O)c2C1=O,4.98 µM (inactive),14.2 µM (inactive),14.2 µM (inactive),1.25 µM (inactive),3.3 µM (inactive),28.6 µM (inactive),2.33 µM (inactive),23.1 µM (inactive),4.08 µM,11.9 µM (inactive),4.54 µM (inactive),11.5 µM (inactive),3.88 µM (inactive),14.6 µM (inactive),17.6 µM (inactive),2.8 µM (inactive),2.52 µM (inactive),6.17 µM (inactive),3.23 µM (inactive)
NCS(=O)(=O)O,> 100 µM (inactive),> 100 µM (inactive),> 100 µM (inactive),> 100 µM (inactive),> 100 µM (inactive),> 100 µM (inactive),> 100 µM (inactive),> 100 µM (inactive),> 100 µM,> 100 µM (inactive),83.4 µM (inactive),> 100 µM (inactive),> 100 µM (inactive),> 100 µM (inactive),> 100 µM (inactive),> 100 µM (inactive),> 100 µM (inactive),> 100 µM (inactive),> 100 µM (inactive)
N#Cc1c(N)nc2[nH]nc(N)c2c1-c1ccccc1,6.49 µM (inactive),3.78 µM (inactive),2.56 µM (inactive),4.73 µM (inactive),26.9 µM (inactive),4.02 µM (inactive),2.72 µM (inactive),5.3 µM (inactive),5.41 µM,21.2 µM (inactive),11.3 µM (inactive),4.63 µM (inactive),16.5 µM (inactive),7.43 µM (inactive),11.8 µM (inactive),7.29 µM (inactive),> 41.8 µM (inactive),2.8 µM (inactive),7.03 µM (inactive)
COc1cc(-c2cc(=O)c3c(OC)c(OC)c(OC)c(OC)c3o2)cc(OC)c1OC [HEPATAMETHOXYFLAVONE],41.8 µM (inactive),28.1 µM (inactive),9.98 µM (inactive),39.6 µM (inactive),55 µM (inactive),3.87 µM (inactive),21 µM (inactive),29 µM (inactive),33.4 µM,40.1 µM (inactive),32.4 µM (inactive),21.9 µM (inactive),30.3 µM (inactive),48.6 µM (inactive),44.8 µM (inactive),44.8 µM (inactive),63.4 µM (inactive),52.2 µM (inactive),45.7 µM (inactive)
